Converted amounts (≈) assume the structure as drawn. Where two headings read alike, the source gives them in different places.
How the values were obtained:
B. subtilis Pol IIIC = target: T1, B. subtilis Pol IIIC (Bacillus subtilis, UniProt P13267); assay: Polymerase IIIC (Pol IIIC) assay, determination of Ki values; type: biochemical; details: Ki (µM) Pol IIIC, assay in absence of dGTP or dATP; Ki is the concentration that reduces control polymerase IIIC activity by 50 percent
T1 construct: made in house
T1 sequence (P13267 whole entry): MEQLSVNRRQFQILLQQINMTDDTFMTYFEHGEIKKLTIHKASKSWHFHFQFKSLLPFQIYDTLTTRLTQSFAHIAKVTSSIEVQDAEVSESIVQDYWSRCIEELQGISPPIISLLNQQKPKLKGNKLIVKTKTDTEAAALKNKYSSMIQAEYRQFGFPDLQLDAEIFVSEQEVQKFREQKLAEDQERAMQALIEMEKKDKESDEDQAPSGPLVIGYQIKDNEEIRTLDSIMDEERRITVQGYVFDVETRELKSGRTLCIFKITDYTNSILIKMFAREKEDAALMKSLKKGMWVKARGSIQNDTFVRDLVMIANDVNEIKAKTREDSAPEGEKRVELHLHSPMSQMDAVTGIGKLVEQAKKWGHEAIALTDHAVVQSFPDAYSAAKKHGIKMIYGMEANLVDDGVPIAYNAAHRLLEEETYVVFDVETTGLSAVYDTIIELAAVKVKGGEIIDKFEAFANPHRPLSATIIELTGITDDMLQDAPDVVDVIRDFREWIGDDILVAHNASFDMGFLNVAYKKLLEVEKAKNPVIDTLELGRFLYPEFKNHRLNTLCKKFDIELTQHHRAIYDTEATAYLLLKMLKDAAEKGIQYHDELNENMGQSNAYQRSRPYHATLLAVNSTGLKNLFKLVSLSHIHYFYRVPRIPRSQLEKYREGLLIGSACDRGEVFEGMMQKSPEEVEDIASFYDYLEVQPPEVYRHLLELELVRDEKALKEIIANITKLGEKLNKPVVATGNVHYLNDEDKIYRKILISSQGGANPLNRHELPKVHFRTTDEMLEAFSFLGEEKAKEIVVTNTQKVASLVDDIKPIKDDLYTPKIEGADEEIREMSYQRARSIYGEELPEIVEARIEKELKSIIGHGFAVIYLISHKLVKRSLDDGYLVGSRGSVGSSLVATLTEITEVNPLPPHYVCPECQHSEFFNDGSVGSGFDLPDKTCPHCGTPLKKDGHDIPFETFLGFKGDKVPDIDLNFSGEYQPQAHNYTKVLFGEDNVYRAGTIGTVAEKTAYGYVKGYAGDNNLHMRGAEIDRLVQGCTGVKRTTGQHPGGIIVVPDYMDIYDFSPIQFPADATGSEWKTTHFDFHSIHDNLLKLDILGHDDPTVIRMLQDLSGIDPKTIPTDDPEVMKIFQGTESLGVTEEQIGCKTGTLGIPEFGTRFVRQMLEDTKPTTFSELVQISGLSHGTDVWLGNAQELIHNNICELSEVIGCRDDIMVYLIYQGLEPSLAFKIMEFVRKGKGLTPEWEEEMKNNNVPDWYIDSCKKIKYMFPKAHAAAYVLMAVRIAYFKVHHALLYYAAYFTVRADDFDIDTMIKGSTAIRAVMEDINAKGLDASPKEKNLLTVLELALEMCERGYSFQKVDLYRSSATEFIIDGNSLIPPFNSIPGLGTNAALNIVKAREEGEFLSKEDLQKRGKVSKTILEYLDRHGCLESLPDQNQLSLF
In short: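 Isolated B. subtilis Pol IIIC (0.025–0.06 units) run 10 min at 30°C in 30 mM Tris pH 7.5, 10 mM Mg acetate, 4 mM DTT, 20% glycerol. Substrates were 0.4 mg/ml activated calf thymus DNA, 25 µM dNTPs and 10 µM [3H]dTTP, with dGTP or dATP omitted per compound structure.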

S. aureus = assay: Minimal Inhibitory Concentration (MIC) determination, 96 well plates; type: cell-based, Staphylococcus aureus; details: Staphylococcus aureus, read-out: MIC (µg/ml) S. aureus
In short: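 Cultures seeded at approximately 1x10^5 CFU/ml in Heart-Brain Infusion medium were exposed to five compound concentrations, five data points each, for 16 to 18 hours at 37°C. Growth at OD 600 nm was expressed as percent of control, and MIC values are given in µg/ml.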

B. subtilis = assay: as above; type: cell-based, Bacillus subtilis; details: Bacillus subtilis; HBI medium, 16 to 18 hours at 37°C; read-out: MIC (µg/ml) B. subtilis
In short: (§1)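 Broth growth in Heart-Brain Infusion medium, seeded at about 1x10^5 CFU/ml, 16 to 18 hours at 37°C. Growth read at OD 600 nm as percent of untreated control; five concentrations per drug, five data points each, MIC reported in µg/ml.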

S.aureus (Smith) = assay: as above; type: cell-based, Staphylococcus aureus; details: Staphylococcus aureus
In short: as §1

E. fecalis = assay: as above; type: cell-based, Enterococcus fecalis; details: Enterococcus; HBI medium, 16 to 18 hours at 37°C; read-out: MIC (µg/ml) E. fecalis
In short: as §1

[1] = HBI medium, 16 to 18 hours at 37°C
[2] = HBI medium, 16 to 18 hours at 37°C, read-out: MIC (µg/ml) S.aureus (Smith)
[3] = table of MSSA/MRSA strains, read-out: MIC (µg/ml) S. aureus (Smith)

With CCc1cc(Nc2cc(=O)n(CCCCN3CCN(c4cc5c(cc4F)c(=O)c(C(=O)O)cn5C4CC4)CC3)c(=O)[nH]2)ccc1C [Compound 2, 3-{4-[1-(1-cyclopropyl-3-carboxy-4-oxo-6-fluoro-7-quinolyl)-4-piperazinyl]butyl}-6-(3-ethyl-4-methylanilino)uracil] the Ki (B. subtilis Pol IIIC) was 0.024 µM, the MIC (S. aureus; [1]) was 0.625 µg/mL (≈ 0.991 µM) and the MIC (S. aureus; table of MSSA/MRSA strains) was 0.625 µg/mL (≈ 0.991 µM). The MIC (B. subtilis) was 0.156 µg/mL (≈ 0.247 µM), the MIC (S.aureus (Smith); [2]) was 0.313 µg/mL (≈ 0.496 µM) and the MIC (S.aureus (Smith); [3]) was 0.313 µg/mL (≈ 0.496 µM). The MIC (E. fecalis) was 1.25 µg/mL (≈ 1.98 µM).

With CCc1cc(Nc2cc(=O)n(CCCCN3CCN(c4cc5c(cc4F)c(=O)c(C(=O)O)cn5C4CC4)CC3)c(=O)[nH]2)ccc1C.CS(=O)(=O)O [Compound 10, 3-{4-[1-(1-cyclopropyl-3-carboxy-4-oxo-6-fluoro-7-quinolyl)-4-piperazinyl]butyl}-6-(3-ethyl-4-methylanilino)uracil methanesulfonate] the Ki (B. subtilis Pol IIIC) was 0.018 µM, the MIC (S. aureus; [1]) was 0.625 µg/mL and the MIC (S. aureus; table of MSSA/MRSA strains) was 0.625 µg/mL. The MIC (B. subtilis) was 0.313 µg/mL, the MIC (S.aureus (Smith); [2]) was 0.625 µg/mL and the MIC (S.aureus (Smith); [3]) was 0.625 µg/mL. It also gave an MIC (E. fecalis) of 1.25 µg/mL.

CCc1cc(Nc2cc(=O)n(CCCCN3CCN(c4c(F)cc5c(=O)c(C(=O)O)cn(C6CC6)c5c4F)CC3C)c(=O)[nH]2)ccc1C (stereo not drawn) [Compound 70, 3-{4-[1-(1-cyclopropyl-3-carboxy-4-oxo-6,8-difluoro-7-quinolyl)-3-methyl-4-piperazinyl]butyl}-6-(3-ethyl-4-methylanilino)uracil] gave a Ki (B. subtilis Pol IIIC) of 0.019 µM, an MIC (S. aureus; [1]) of 0.313 µg/mL (≈ 0.472 µM) and an MIC (S. aureus; table of MSSA/MRSA strains) of 0.39 µg/mL (≈ 0.588 µM). For the same molecule, the MIC (B. subtilis) was 0.156 µg/mL (≈ 0.235 µM), the MIC (S.aureus (Smith); [2]) was 0.156 µg/mL (≈ 0.235 µM) and the MIC (S.aureus (Smith); [3]) was 0.21 µg/mL (≈ 0.317 µM). It also gave an MIC (E. fecalis) of 0.95 µg/mL (≈ 1.43 µM).

Source: patent EP1401829B1, “NOVEL HETEROCYCLIC ANTIBACTERIAL COMPOUNDS” (Microbiotix, Inc., priority 2001, dated 2002)
